One assay addresses hA2b/CHO (Homo sapiens (Human), UniProt P29275). Put plainly: cAMP inhibition assay in hA2b/CHO cells, 10 μM adenosine.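 Note: cells exposed to compound 30 min at 37 °C, then stimulated with adenosine a further 30 min, cAMP read after 60 min at room temperature.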 It counts as cell-based. As to conditions: read-out: cAMP & FLIPR IC50 (nM) hA2b.
For another assay, the target named is hA2a/CHO (Homo sapiens (Human), UniProt P29274). Put plainly: cAMP inhibition assay in hA2a/CHO cells, 10 μM adenosine.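 Note: compounds added to cells 30 min ahead of adenosine, then a further 30 min at 37 °C with adenosine before cAMP detection.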 The class given is cell-based. As to conditions: read-out: cAMP & FLIPR IC50 (nM) hA2a.
Assay [1] addresses hADORA1/CHO (hA1 expressing) cells (Homo sapiens (Human), UniProt P30542). Put plainly: cell-based. As to conditions: FLIPR inhibition, 10 μM adenosine, read-out: cAMP & FLIPR IC50 (nM) hA1.
For another assay, the target named is mA2a/CHO (Mus musculus (Mouse), UniProt Q60613). Put plainly: cAMP inhibition assay in mA2a/CHO cells, 10 μM adenosine.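 Note: compounds preincubated 30 min at 37 °C before the adenosine challenge, then 30 min further stimulation, readout after 60 min detection reagent incubation at room temperature in 384-well plates.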 It counts as cell-based. As to conditions: read-out: cAMP & FLIPR IC50 (nM) mA2a.
Chain of mA2a/CHO (Q60613 whole entry): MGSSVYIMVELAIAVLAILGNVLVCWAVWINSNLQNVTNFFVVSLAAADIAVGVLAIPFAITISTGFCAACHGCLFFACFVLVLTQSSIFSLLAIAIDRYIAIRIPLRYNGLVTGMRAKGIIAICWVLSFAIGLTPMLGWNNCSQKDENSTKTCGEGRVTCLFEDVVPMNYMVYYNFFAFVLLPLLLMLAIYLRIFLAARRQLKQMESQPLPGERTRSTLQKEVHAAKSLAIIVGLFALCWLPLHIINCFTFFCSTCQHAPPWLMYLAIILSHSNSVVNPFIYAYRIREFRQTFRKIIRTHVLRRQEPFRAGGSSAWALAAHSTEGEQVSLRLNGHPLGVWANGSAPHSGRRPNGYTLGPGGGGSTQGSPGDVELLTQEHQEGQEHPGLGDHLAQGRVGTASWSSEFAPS

Chain of hADORA1/CHO (hA1 expressing) cells (P30542 whole entry): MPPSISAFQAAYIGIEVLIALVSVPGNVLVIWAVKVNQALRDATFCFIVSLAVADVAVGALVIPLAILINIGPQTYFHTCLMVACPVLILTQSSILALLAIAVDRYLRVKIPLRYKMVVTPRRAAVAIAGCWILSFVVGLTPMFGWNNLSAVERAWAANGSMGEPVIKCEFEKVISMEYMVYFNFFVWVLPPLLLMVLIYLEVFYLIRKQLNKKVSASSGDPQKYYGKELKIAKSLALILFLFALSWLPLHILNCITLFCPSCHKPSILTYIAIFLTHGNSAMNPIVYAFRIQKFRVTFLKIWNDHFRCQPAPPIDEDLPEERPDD
Chain of hA2b/CHO (P29275 whole entry): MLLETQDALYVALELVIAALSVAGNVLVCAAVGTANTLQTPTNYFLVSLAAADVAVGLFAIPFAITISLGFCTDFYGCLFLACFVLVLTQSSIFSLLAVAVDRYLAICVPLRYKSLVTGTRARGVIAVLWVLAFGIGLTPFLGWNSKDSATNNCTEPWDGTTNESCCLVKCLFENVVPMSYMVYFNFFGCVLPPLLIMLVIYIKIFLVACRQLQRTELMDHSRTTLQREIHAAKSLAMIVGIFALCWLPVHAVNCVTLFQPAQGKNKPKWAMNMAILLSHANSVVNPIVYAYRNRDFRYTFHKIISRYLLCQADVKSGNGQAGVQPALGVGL
Chain of hA2a/CHO (P29274 whole entry): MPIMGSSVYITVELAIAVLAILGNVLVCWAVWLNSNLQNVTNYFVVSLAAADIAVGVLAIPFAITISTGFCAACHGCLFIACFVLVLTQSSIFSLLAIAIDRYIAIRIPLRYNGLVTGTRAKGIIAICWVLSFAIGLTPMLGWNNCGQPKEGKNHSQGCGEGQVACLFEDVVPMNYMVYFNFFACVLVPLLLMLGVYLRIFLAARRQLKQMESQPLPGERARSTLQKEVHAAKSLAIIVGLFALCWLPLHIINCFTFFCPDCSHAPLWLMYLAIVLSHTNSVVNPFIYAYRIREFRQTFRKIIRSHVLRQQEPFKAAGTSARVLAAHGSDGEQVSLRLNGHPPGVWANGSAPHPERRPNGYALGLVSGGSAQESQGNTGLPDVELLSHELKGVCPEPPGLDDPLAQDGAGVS
Experimental for hA2a/CHO: (§1) hA2a/CHO, hA2b/CHO, hA3/CHO and mA2a/CHO (Genscript) were plated at 5×10^3 cells/well into 384-well polystyrene plates at the day of experiment. Compounds were pre-incubated with cells for 30 min at 37° C., 5% CO2. Then 10 μM adenosine was added to the cells and incubated for 30 min at 37° C., 5% CO2. Detection reagent (CISBIO) was added and the plates were incubated for 60 min at room temperature. The signal was captured by Envision.
Experimental for hA2b/CHO: as §1
Experimental for mA2a/CHO: as §1

The term IC50 denotes the concentration needed to halve the response being measured. `Cc1cnc2ccc(-c3nc(C(=O)NCC4(C)CCOC4)c(N)nc3-c3ncco3)cn12` (single isomer, unassigned; isomer 1) [Example 251, 3-amino-6-(3-methylimidazo[1,2-a]pyridin-6-yl)-N-((3-methyltetrahydrofuran-3-yl)methyl)-5-(oxazol-2-yl)pyrazine-2-carboxamide (isomer 1)]: the IC50 on hA2b/CHO was found to be 657 nM; on hA2a/CHO, 4.7 nM; in assay [1] it was 425 nM; at mA2a/CHO it was 34 nM.

In the case of `Cc1cnc2ccc(-c3nc(C(=O)NC4CC4)c(N)nc3-c3ncco3)cn12` [Example 245, 3-amino-N-cyclopropyl-6-(3-methylimidazo[1,2-a]pyridin-6-yl)-5-(oxazol-2-yl)pyrazine-2-carboxamide], the IC50 was determined as 247 nM at hA2b/CHO, 3.8 nM at hA2a/CHO, 87 nM in assay [1] and 39 nM at mA2a/CHO.

Turning to `Cc1cnc2ccc(-c3nc(C(=O)NCCN4CCCC4=O)c(N)nc3-c3ncco3)cn12` [Example 208, 3-amino-6-(3-methylimidazo[1,2-a]pyridin-6-yl)-5-(oxazol-2-yl)-N-(2-(2-oxopyrrolidin-1-yl)ethyl)pyrazine-2-carboxamide], the IC50 at hA2b/CHO stood at 1230 nM; on hA2a/CHO, 8.9 nM; in assay [1], 9540 nM; on mA2a/CHO, 19 nM.

With `CP(C)(=O)c1cccc(F)c1CNC(=O)c1nc(-c2ccc3nccn3c2)c(-c2ncco2)nc1N` [Example 96, 3-amino-N-[[2-(dimethylphosphoryl)-6-fluorophenyl]methyl]-6-[imidazo[1,2-a]pyridin-6-yl]-5-(1,3-oxazol-2-yl)pyrazine-2-carboxamide], the IC50 came to 164 nM at hA2b/CHO, 2.5 nM at hA2a/CHO, 136 nM in assay [1] and 7.5 nM on mA2a/CHO.

In the case of `Cc1cnc2ccc(-c3nc(C(=O)NC[C@H]4CCOC4)c(N)nc3-n3nccn3)cn12` [Example 242, (R)-3-amino-6-(3-methylimidazo[1,2-a]pyridin-6-yl)-N-((tetrahydrofuran-3-yl)methyl)-5-(2H-1,2,3-triazol-2-yl) pyrazine-2-carboxamide], the IC50 is 683 nM at hA2b/CHO, 2.9 nM at hA2a/CHO, 294 nM in assay [1] and 51 nM on mA2a/CHO.

In the case of `Cc1cnc2ccc(-c3nc(C(=O)NCc4cccc(N5CC(N(C)C)C5)n4)c(N)nc3-c3ncco3)cn12` [Example 111, 3-amino-N-((6-(3-(dimethylamino)azetidin-1-yl)pyridin-2-yl)methyl)-6-(3-methylimidazo[1,2-a]pyridin-6-yl)-5-(oxazol-2-yl)pyrazine-2-carboxamide], the IC50 at hA2b/CHO came to 81 nM; on hA2a/CHO, 0.5 nM; in assay [1] it was 2810 nM; at mA2a/CHO, 6.5 nM.

With `COc1cccc(CNC(=O)c2nc(-c3ccc(=O)n(C)c3)c(-c3ncco3)nc2N)n1` [Example 17], the IC50 is at least 10000 nM on hA2b/CHO, 117 nM at hA2a/CHO, 951 nM in assay [1] and 132 nM on mA2a/CHO.

As to `Cc1cnc2ccc(-c3nc(C(=O)NCC4CCCCN4C)c(N)nc3-c3ncco3)cn12` (single isomer, unassigned; isomer 1) [Example 124, 3-amino-6-(3-methylimidazo[1,2-a]pyridin-6-yl)-N-((1-methylpiperidin-2-yl)methyl)-5-(oxazol-2-yl)pyrazine-2-carboxamide (isomer 1)], the concentration for half-maximal inhibition (IC50) was at least 10000 nM on hA2b/CHO, 2260 nM on hA2a/CHO, 10000 nM in assay [1] and at least 10000 nM on mA2a/CHO.

With `Cc1cnc2ccc(-c3nc(C(=O)NCC4CN(C)CCO4)c(N)nc3-c3ncco3)cn12` (racemic) [Example 207, rac-3-amino-6-(3-methylimidazo[1,2-a]pyridin-6-yl)-N-((4-methylmorpholin-2-yl)methyl)-5-(oxazol-2-yl)pyrazine-2-carboxamide], the IC50 was determined as 774 nM at hA2b/CHO, 12 nM at hA2a/CHO, 5950 nM in assay [1] and 44 nM on mA2a/CHO.

Take `COC[C@H]1CCCN1C(=O)c1nc(-c2ccc3ncc(C)n3c2)c(-c2ccc(F)cc2)nc1N` [Example 204-1, (R)-(3-amino-5-(4-fluorophenyl)-6-(3-methylimidazo[1,2-a]pyridin-6-yl)pyrazin-2-yl)(2-(methoxymethyl)pyrrolidin-1-yl)methanone]: the 50% inhibitory concentration (IC50) at hA2b/CHO is over 10000 nM; at hA2a/CHO it was 49 nM; in assay [1], 294 nM; on mA2a/CHO, 249 nM.

On to `Cc1cnc2ccc(-c3nc(C(=O)N[C@H]4CCCOC4)c(N)nc3-c3ncco3)cn12` (single isomer, unassigned; isomer 1) [Example 163, 3-amino-6-(3-methylimidazo[1,2-a]pyridin-6-yl)-5-(oxazol-2-yl)-N-(tetrahydro-2H-pyran-3-yl)pyrazine-2-carboxamide (isomer 1)], for which the IC50 is 387 nM on hA2b/CHO, 3.28 nM on hA2a/CHO, over 10000 nM in assay [1] and 22 nM at mA2a/CHO.

`COC1CCC(NC(=O)c2nc(-c3ccc4ncc(C)n4c3)c(-c3ncco3)nc2N)CC1` (stereo not shown) [Example 249, 3-amino-N-(4-methoxycyclohexyl)-6-(3-methylimidazo[1,2-a]pyridin-6-yl)-5-(oxazol-2-yl)pyrazine-2-carboxamide]: the IC50 is 423 nM at hA2b/CHO, 5.7 nM on hA2a/CHO, over 10000 nM in assay [1] and 50 nM on mA2a/CHO.

On to `CC1CN(c2nc(C(=O)NCc3c(F)cccc3F)c(N)nc2-c2ccc(F)cc2)CC(C)O1` (stereo not shown) [Example 6, 3-amino-N-(2,6-difluorobenzyl)-6-(2,6-dimethylmorpholino)-5-(4-fluorophenyl)pyrazine-2-carboxamide], for which the 50% inhibitory concentration (IC50) is at least 10000 nM at hA2b/CHO, 87 nM on hA2a/CHO, 8840 nM in assay [1] and 1060 nM at mA2a/CHO.

`CN1CCCC1CNC(=O)c1nc(-c2ccc3ncc(C(F)(F)F)n3c2)c(-c2ncco2)nc1N` (single isomer, unassigned) [Cmpd. 206]: the IC50 at hA2b/CHO was determined as 707 nM; at hA2a/CHO, 5.3 nM; in assay [1] it was 2490 nM; at mA2a/CHO, 50 nM.

For `Cc1cc(-c2nc(C(=O)NCc3ccccc3C(F)F)c(N)nc2-c2ccc(F)cc2)cc(C)n1` [Example 55, 3-amino-N-(2-(difluoromethyl)benzyl)-6-(2,6-dimethylpyridin-4-yl)-5-(4-fluorophenyl)pyrazine-2-carboxamide], the IC50 at hA2b/CHO stood at 4440 nM; at hA2a/CHO, 133 nM; in assay [1], 413 nM; on mA2a/CHO it was 1590 nM.

As to `COc1cccnc1CNC(=O)c1nc(-c2cc(C)nc(C)c2)c(-c2ccc(F)cc2)nc1N` [Example 71, 3-amino-6-(2,6-dimethylpyridin-4-yl)-5-(4-fluorophenyl)-N-((3-methoxypyridin-2-yl)methyl)pyrazine-2-carboxamide], the IC50 stood at 1940 nM at hA2b/CHO, 64 nM on hA2a/CHO, 388 nM in assay [1] and 1250 nM on mA2a/CHO.

For `COc1c(F)cccc1CNC(=O)c1nc(-c2cc(C)nc(C)c2)c(-c2ccc(F)cc2)nc1N` [Example 54, 3-amino-6-(2,6-dimethylpyridin-4-yl)-N-(3-fluoro-2-methoxybenzyl)-5-(4-fluorophenyl)pyrazine-2-carboxamide], the IC50 is at least 10000 nM on hA2b/CHO, 117 nM on hA2a/CHO, 1590 nM in assay [1] and 2080 nM at mA2a/CHO.

`COC[C@@H](C)NC(=O)c1nc(-c2ccc3ncc(C)n3c2)c(-c2ncco2)nc1N` [Example 159, (R)-3-amino-N-(1-methoxypropan-2-yl)-6-(3-methylimidazo[1,2-a]pyridin-6-yl)-5-(oxazol-2-yl)pyrazine-2-carboxamide]: the IC50 on hA2b/CHO is 1640 nM; on hA2a/CHO, 5.31 nM; in assay [1], over 10000 nM; on mA2a/CHO it was 13.2 nM.

Regarding `Cn1cc(-c2nc(C(=O)NCc3ccccc3OC(F)F)c(N)nc2-c2ccc(F)cc2)ccc1=O` [Example 72, 3-amino-N-(2-(difluoromethoxy)benzyl)-5-(4-fluorophenyl)-6-(1-methyl-6-oxo-1,6-dihydropyridin-3-yl)pyrazine-2-carboxamide], the IC50 was determined as 23 nM at hA2b/CHO, 1.3 nM on hA2a/CHO, 14 nM in assay [1] and 8.1 nM on mA2a/CHO.

For `Cc1cnc2ccc(-c3nc(C(=O)NCC4COCCO4)c(N)nc3-c3ncco3)cn12` (racemic) [Example 211, rac-N-((1,4-dioxan-2-yl)methyl)-3-amino-6-(3-methylimidazo[1,2-a]pyridin-6-yl)-5-(oxazol-2-yl)pyrazine-2-carboxamide], the IC50 at hA2b/CHO is 160 nM; on hA2a/CHO, 3.6 nM; in assay [1], 319 nM; on mA2a/CHO, 19 nM.

Consider `Cc1cnc2ccc(-c3nc(C(=O)NC[C@@H]4CCN(C(=O)C5CC5)C4)c(N)nc3-c3ncco3)cn12` [Cmpd. 221, 3-amino-N-[[(3S)-1-cyclopropanecarbonylpyrrolidin-3-yl]methyl]-6-[3-methylimidazo[1,2-a]pyridin-6-yl]-5-(1,3-oxazol-2-yl)pyrazine-2-carboxamide], for which the IC50 on hA2b/CHO was 1030 nM; on hA2a/CHO, 1.6 nM; in assay [1] it was 7540 nM; at mA2a/CHO, 33 nM.

With `Cc1cnc2ccc(-c3nc(C(=O)N[C@H]4CCN(C)C4)c(N)nc3-c3ccc(F)cc3)cn12` [Example 200-2, (S)-3-amino-5-(4-fluorophenyl)-6-(3-methylimidazo[1,2-a]pyridin-6-yl)-N-(1-methylpyrrolidin-3-yl)pyrazine-2-carboxamide], the IC50 on hA2b/CHO was 3540 nM; at hA2a/CHO, 12 nM; in assay [1], over 10000 nM; at mA2a/CHO, 169 nM.

For the origin of these results see patent publication US10898481B2 (priority 2018, dated 2021).
